In patent US4760148A, “5-aralkyl substituted 2H-benzotriazoles and stabilized compositions” (Ciba-Geigy Corporation, priority 1985, dated 1988):

What was measured:
[1] = in words, prior art patents; cited from earlier work
[2] = in words, prior art patents; cited from earlier work; remark: listed apart in the source
[3] = Thermal gravimetric analysis (resistance to loss of benzotriazole stabilizers); conditions: for Time (minutes) to 50% Weight Loss of Stabilizer: isothermal at 280° C.; for Time (minutes) to 50% Weight Loss of Stabilizer / Temperature °C. to 10% Weight Loss of Stabilizer / Temperature °C. to 50% Weight Loss of Stabilizer: 100 ml nitrogen/minute; for Temperature °C. to 10% Weight Loss of Stabilizer / Temperature °C. to 50% Weight Loss of Stabilizer: scanning at 10°(C.) per minute; for resistance to thermogravimetric loss: in words, compared with prior art benzotriazole F
Description: A number of 2-aryl-2H-benzotriazole light stabilizers are subjected to thermal gravimetric analysis with a flow rate of 100 ml nitrogen/minute both isothermally at 280° C. to indicate the time in minutes to reach 50% weight loss of the stabilizer as well as in a scanning mode at a heating rate of 10° (C.) per minute to ascertain the temperature at which 10% and 50% weight loss of stabilizer are observed.

[4] = Solubility of benzotriazole stabilizers; assay type: physicochemical; conditions: 25° C.
Excerpt: The benzotriazole stabilizers are classically materials with relatively low solubility in common organic solvents. This is particularly the case where the benzotriazole is substituted in the 2-phenyl ring with aralkyl groups intended to decrease stabilizer volatility during processing and use.

[5] = Absorbance at 340nm (extinction coefficients); assay type: physicochemical; conditions: for Specific Extinction Coefficient a: equal weight basis
Excerpt: The compounds of this invention show unanticipated enhancement of absorbance at 340nm as can be seem from a comparison of molar extinction coefficients E compared to state of the art compund F which lacks an aralkyl-substituent in the 5-position. In many cases the enhanced absorbance is also seen when products are compared i.e. in terms of Specific Extinction Coefficients a on an equal weight rather than molar basis.
Molar Extinction Coefficient E = a × molecular weight

[6] = Stabilizer loss on milling into polycarbonate resin; conditions: milling at 400° F. (240° C.), 15 minutes, spectrophotometric
Description: Samples of light stabilizers are incorporated into polycarbonate resin by milling at 400° F. ([…]) for a 15 minute period. […] At the end of the milling period the percent stabilizer loss is determined spectrophotometrically.

[7] = Solubility of crystalline modification forms; assay type: physicochemical; conditions: organic solvents including xylene and methyl amyl ketone

Row | SMILES | solubility in substrates and processing solvents [1] | resistance to loss by volatilization [2] | Time (minutes) to 50% Weight Loss of Stabilizer [3] [min] | Temperature °C. to 10% Weight Loss of Stabilizer [3] [°C] | Temperature °C. to 50% Weight Loss of Stabilizer [3] [°C] | Solubility in Butyl Cellosolve Acetate [4] | Solubility in Heptane [4] | Solubility in Methyl Amyl Ketone [4] | Solubility in Xylene [4] | Molar Extinction Coefficient E [5] [L/mol/cm] | Specific Extinction Coefficient a [5] [L/g/cm] | % loss (by weight) of stabilizer [6] [%] | resistance to thermogravimetric loss [3] | solubility of crystalline form melting at 114°-116° C. versus the other crystalline form [7] | compatibility / performance in substrates [1]
1 | CC(C)(C)CC(C)(C)c1cc(-n2nc3ccccc3n2)c(O)c(C(C)(C)CC(C)(C)C)c1 [2-(2-hydroxy-3,5-di-tert-octylphenyl)-2H-benzotriazole] | enhanced solubility in processing solvents and substrates | did not have outstanding resistance to loss by volatilization |  |  |  |  |  |  |  |  |  |  |  |  | 
2 | CCC(C)(C)c1cc(-n2nc3ccccc3n2)c(O)c(C(C)(C)CC)c1 [Compound B, 2(2-hydroxy-3,5-di-tert-amylphenyl)-2H--benzotriazole] |  |  | 0.9 | 200 | 233 | 19 grams per 100 grams solvent | 23 grams per 100 grams solvent | 34 grams per 100 grams solvent | 70 grams per 100 grams solvent |  |  |  |  |  | 
3 | CC(C)(c1ccccc1)c1cc(-n2nc3ccccc3n2)c(O)c(C(C)(C)c2ccccc2)c1 [Compound F, 2-[2-hydroxy-3,5-di-(alpha,alpha-dimethylbenzyl)phenyl]-2 H-benzotriazole] | relatively low solubility in some substrates and processing solvents | superior resistance to loss from stabilized compositions during high temperature processing | 24 | 300 | 340 | 14 grams per 100 grams solvent | 1.5 grams per 100 grams solvent | 6 grams per 100 grams solvent | 16 grams per 100 grams solvent | 15100 | 34 | < 3 |  |  | 
4 | CC(C)(C)CC(C)(C)c1cc(-n2nc3ccccc3n2)c(O)c(C(C)(C)c2ccccc2)c1 [Compound G, 2-[2-hydroxy-3-(alpha,alpha-dimethylbenzyl)-5-tert-octylphenyl]-2H-benzotriazole] |  |  | 7.4 | 267 | 307 | 19 grams per 100 grams solvent | 9.7 grams per 100 grams solvent | 33 grams per 100 grams solvent | 82 grams per 100 grams solvent |  |  |  |  |  | 
5 | CC(C)(C)c1cc(-n2nc3ccc(C(C)(C)c4ccccc4)cc3n2)c(O)c(C(C)(C)C)c1 [Example 7, 5-alpha,alpha-Dimethylbenzyl-2-(2-hydroxy-3,5-di-tert-butylphenyl)-2H-benzotriazole] |  |  | 19 | 295 | 338 | 61 grams per 100 grams solvent | 97 grams per 100 grams solvent | 128 grams per 100 grams solvent | 197 grams per 100 grams solvent | 19000 | 43 | < 3 | similar |  | 
6 | CC(C)(c1ccccc1)c1cc(-n2nc3ccc(C(C)(C)c4ccccc4)cc3n2)c(O)c(C(C)(C)c2ccccc2)c1 [Example 21, 5-alpha,alpha-Dimethylbenzyl-2-[2-hydroxy-3,5-di (alpha, alpha-dimethylbenzyl)phenyl]-2H-benzotriazole] |  |  | 2040 | 365 | 412 |  |  |  |  | 19500 | 28 | < 3 | very much more resistant to thermogravimetric loss | far greater solubility in many organic solvents | 
7 | CC(C)(C)CC(C)(C)c1cc(-n2nc3ccc(C(C)(C)c4ccccc4)cc3n2)c(O)c(C(C)(C)c2ccccc2)c1 [Example 22, 5-alpha,alpha-Dimethylbenzyl-2-(2-hydroxy-3-alpha,alpha-dimethylbenzyl-5-tert-octylphenyl)-2H-benzotriazole] |  |  | 840 | 340 | 387 |  |  |  |  | 18500 | 33 |  |  |  | 
8 | CCC(C)(C)c1cc(-n2nc3ccc(C(C)(C)c4ccccc4)cc3n2)c(O)c(C(C)(C)CC)c1 [Example 23] |  |  | 33 | 285 | 325 | > 100 grams per 100 grams solvent | > 100 grams per 100 grams solvent | > 100 grams per 100 grams solvent | > 100 grams per 100 grams solvent | 19100 | 41 |  |  |  | 
9 | CC(C)(C)CC(C)(C)c1cc(-n2nc3ccc(C(C)(C)c4ccccc4)cc3n2)c(O)c(C(C)(C)CC(C)(C)C)c1 [Example 24, 5-alpha,alpha-Dimethylbenzyl-2-(2-hydroxy-3,5-di-tert-octylphenyl)-2H-benzotriazole] |  |  | 40 | 308 | 348 |  |  |  |  | 17400 | 31 |  |  |  | 
10 | CC(C)(c1ccccc1)c1cc(-n2nc3ccc(Cc4ccccc4)cc3n2)c(O)c(C(C)(C)c2ccccc2)c1 [Example 26, 5-Benzyl-2-[2-hydroxy-3,5-di-(alpha,alpha-dimethylbenzyl)phenyl]-2H-benzotriazole] |  |  | 3780 | 360 | 405 |  |  |  |  | 18500 | 35 |  | very much more resistant to thermogravimetric loss |  | 
11 | Cc1ccc(O)c(-n2nc3ccccc3n2)c1 [Stabilizer A, 2(2-hydroxy-5-methylphenyl)-2H--benzotriazole] |  |  | 0.75 | 182 | 215 |  |  |  |  |  |  |  |  |  | 
12 | CCC(C)c1cc(-n2nc3ccccc3n2)c(O)c(C(C)(C)C)c1 (stereo not shown) [Stabilizer C, 2(2-hydroxy-3-tert-butyl-5-sec-butylphenyl)-2H--benzotriazole] |  |  | 1.0 | 210 | 247 |  |  |  |  |  |  |  |  |  | 
13 | CC(C)(C)CC(C)(C)c1ccc(O)c(-n2nc3ccccc3n2)c1 [Stabilizer D, 2-(2-hydroxy-5-tert-octylphenyl)-2H-benzotriazole] |  |  | 1.9 | 225 | 260 |  |  |  |  |  |  | 40 |  |  | superior compatibility and performance in polyethylene
14 | Cc1cc(C(C)c2ccccc2)c(O)c(-n2nc3ccccc3n2)c1 (stereo not shown) [Stabilizer E, 2-[2-hydroxy-3-(1-phenylethyl)-5-methylphenyl]-2H-benzotriazole] |  | better resistance to loss by volatilization during processing | 3.0 | 250 | 290 |  |  |  |  |  |  |  |  |  | better compatibility
